{"source": "ChEMBL document CHEMBL6120941", "about": "“Discovery of SIRT1-Activating Hydrogen Sulfide Donating Derivatives for Efficient Resistant of Myocardial Ischemic Injury” (J Med Chem, 2024)", "key": {"H9c2 [1]": {"tested_on": "H9c2", "experiment": "Cardioprotective activity against CoCl2-induced cellular hypoxia injury in rat H9c2 cells assessed as increase in cell viability at 30 uM incubated for 24 hrs by CCK-8 assay", "type": "functional, cell-based"}, "H9c2 [2]": {"tested_on": "H9c2", "experiment": "Cardioprotective activity against CoCl2-induced cellular hypoxia injury in rat H9c2 cells assessed as cell viability at 2.5 uM incubated for 24 hrs by CCK-8 assay (reference value: 51.80 +/- 2.58 %)", "type": "functional", "details": "read-out: Activity"}, "H9c2 [3]": {"tested_on": "H9c2", "experiment": "Cardioprotective activity against CoCl2-induced cellular hypoxia injury in rat H9c2 cells assessed as cell viability at 10 uM incubated for 24 hrs by CCK-8 assay (reference value: 51.80 +/- 2.58 %)", "type": "functional", "details": "read-out: Activity"}, "H9c2 [4]": {"tested_on": "H9c2", "experiment": "Induction of H2S release in rat H9c2 cells incubated for 24 hrs by AzMC probe based analysis", "type": "functional, cell-based", "details": "dose 1.25-10 µM"}, "Rattus norvegicus [5]": {"tested_on": "Rattus norvegicus", "experiment": "Cardioprotective activity in myocardial ischemia Sprague-Dawley rat model assessed as decrease in ISO-induced ST segment at 10 to 30 mg/kg, IG treated for 7 days consecutively followed by ISO administration daily for 2 days consecutively by ECG analysis", "type": "functional, organism-based", "details": "dose 10-30 mg/kg, time 9.0 day"}, "Rattus norvegicus [6]": {"tested_on": "Rattus norvegicus", "experiment": "Cardioprotective activity in myocardial ischemia Sprague-Dawley rat model assessed as myocardial infarction area at 10 mg/kg, IG treated for 7 days consecutively followed by ISO administration daily for 2 days consecutively by TTC staining based analysis (reference value: 32.65 %)", "type": "functional", "details": "time 9 day"}, "Rattus norvegicus [7]": {"tested_on": "Rattus norvegicus", "experiment": "Cardioprotective activity in myocardial ischemia Sprague-Dawley rat model assessed as myocardial infarction area at 30 mg/kg, IG treated for 7 days consecutively followed by ISO administration daily for 2 days consecutively by TTC staining based analysis (reference value: 32.65 %)", "type": "functional", "details": "time 9 day"}, "Rattus norvegicus [8]": {"tested_on": "Rattus norvegicus", "experiment": "Cardioprotective activity in myocardial ischemia Sprague-Dawley rat model assessed as decrease in myocardial injury administered intragastrically for 7 days consecutively followed by ISO administration daily for 2 days consecutively by H and E/Masson staining based analysis", "type": "functional, organism-based", "details": "dose 10-30 mg/kg, route ig, time 9.0 day"}, "H9c2 [9]": {"tested_on": "H9c2", "experiment": "Cardioprotective activity against CoCl2-induced cellular hypoxia injury in rat H9c2 cells assessed as mitochondrial membrane potential at 10 uM incubated for 24 hrs by JC-1 staining based analysis (reference value: 48.08 %)", "type": "functional"}, "H9c2 [10]": {"tested_on": "H9c2", "experiment": "Cardioprotective activity against CoCl2-induced cellular hypoxia injury in rat H9c2 cells assessed as increase in hypoxia-reduced ATP production in mitochondria at 5 to 10 uM incubated for 24 hrs by bioluminescence assay", "type": "functional, cell-based", "details": "dose 5-10 µM"}, "H9c2 [11]": {"tested_on": "H9c2", "experiment": "Cardioprotective activity against CoCl2-induced cellular hypoxia injury in rat H9c2 cells assessed as reduction in necrosis at 5 to 10 uM incubated for 24 hrs by flow cytometry", "type": "functional, cell-based", "details": "dose 5-10 µM"}, "H9c2 [12]": {"tested_on": "H9c2", "experiment": "Cardioprotective activity against CoCl2-induced cellular hypoxia injury in rat H9c2 cells assessed as preservation of nuclear morphology at 5 to 10 uM incubated for 24 hrs by Hoechst 33258 nuclear staining based analysis", "type": "functional, cell-based", "details": "dose 5-10 µM"}, "H9c2 [13]": {"tested_on": "H9c2", "experiment": "Cardioprotective activity against CoCl2-induced cellular hypoxia injury in rat H9c2 cells assessed as inhibition of CoCl2-induced morphological changes at 5 to 10 uM incubated for 24 hrs by fluorescence based analysis", "type": "functional, cell-based", "details": "dose 5-10 µM"}, "H9c2 [14]": {"tested_on": "H9c2", "experiment": "Antioxidant activity against CoCl2-induced cellular hypoxia injury in rat H9c2 cells assessed as decrease in hypoxia-induced LDH release at 5 to 10 uM incubated for 24 hrs", "type": "functional, cell-based", "details": "dose 5-10 µM"}, "[15]": {"target": "T1, NAD-dependent protein deacetylase sirtuin-1 (Homo sapiens) (UniProt Q96EB6)", "T1 sequence (whole entry)": "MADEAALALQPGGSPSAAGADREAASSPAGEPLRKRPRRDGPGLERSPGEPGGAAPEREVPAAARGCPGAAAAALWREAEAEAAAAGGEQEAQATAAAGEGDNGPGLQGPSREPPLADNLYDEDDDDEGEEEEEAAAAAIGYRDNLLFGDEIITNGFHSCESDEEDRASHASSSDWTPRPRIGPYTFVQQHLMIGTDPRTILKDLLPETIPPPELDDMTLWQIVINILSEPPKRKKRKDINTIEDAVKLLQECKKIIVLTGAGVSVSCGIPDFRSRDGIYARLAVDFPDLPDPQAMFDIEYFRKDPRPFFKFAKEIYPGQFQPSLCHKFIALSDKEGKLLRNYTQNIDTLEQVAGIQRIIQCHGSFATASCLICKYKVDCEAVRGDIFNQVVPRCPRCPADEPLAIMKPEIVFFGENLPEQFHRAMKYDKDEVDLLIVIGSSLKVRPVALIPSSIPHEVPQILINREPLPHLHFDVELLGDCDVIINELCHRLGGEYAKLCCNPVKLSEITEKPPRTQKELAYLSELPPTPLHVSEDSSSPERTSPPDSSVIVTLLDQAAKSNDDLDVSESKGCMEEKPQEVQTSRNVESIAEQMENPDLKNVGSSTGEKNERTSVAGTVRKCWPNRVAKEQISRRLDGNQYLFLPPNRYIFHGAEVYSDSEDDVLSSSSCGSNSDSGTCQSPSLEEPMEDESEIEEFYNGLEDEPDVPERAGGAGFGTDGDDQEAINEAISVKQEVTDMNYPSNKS", "experiment": "Activation of SIRT1 (unknown origin) using RHKK-ac-AMC as substrate incubated for 2 hrs by FDL assay relative to control", "details": "filed as activator"}, "[16]": {"target": "T2, NAD-dependent protein deacetylase sirtuin-1 (Rattus norvegicus) (UniProt A0A0G2JZ79)", "T2 sequence (whole entry)": "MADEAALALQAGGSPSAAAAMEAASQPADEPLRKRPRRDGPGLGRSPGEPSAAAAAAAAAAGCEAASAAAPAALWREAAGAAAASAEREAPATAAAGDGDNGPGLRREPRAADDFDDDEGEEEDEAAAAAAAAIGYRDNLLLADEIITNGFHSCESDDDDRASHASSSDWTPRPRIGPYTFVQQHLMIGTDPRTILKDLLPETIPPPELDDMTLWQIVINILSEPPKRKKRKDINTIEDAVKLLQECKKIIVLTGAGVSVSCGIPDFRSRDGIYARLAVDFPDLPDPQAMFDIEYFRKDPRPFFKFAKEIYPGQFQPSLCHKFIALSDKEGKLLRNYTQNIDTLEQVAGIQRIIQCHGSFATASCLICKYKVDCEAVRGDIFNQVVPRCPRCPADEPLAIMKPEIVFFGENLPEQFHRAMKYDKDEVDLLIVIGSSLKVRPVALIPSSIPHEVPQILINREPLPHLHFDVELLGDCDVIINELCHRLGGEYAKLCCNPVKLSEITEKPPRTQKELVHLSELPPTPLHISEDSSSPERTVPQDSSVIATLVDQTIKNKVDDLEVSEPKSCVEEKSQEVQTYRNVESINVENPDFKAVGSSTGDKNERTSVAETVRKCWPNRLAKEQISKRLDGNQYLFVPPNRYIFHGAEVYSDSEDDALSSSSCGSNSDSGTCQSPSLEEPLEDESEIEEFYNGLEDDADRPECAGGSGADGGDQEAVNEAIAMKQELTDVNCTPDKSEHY", "experiment": "Activation of SIRT1 in CoCl2-induced cellular hypoxia injury in rat H9c2 cells at 5 to 10 uM incubated for 24 hrs by Western blot analysis", "type": "cell-based", "details": "filed as activator, dose 5-10 µM"}}, "note": "Calls of active or inactive are those of the source. The calls are words filed in the database; no cut-off is given here.", "data": [{"smiles": "C=CCSSCCC(=O)O[C@H]1CC[C@]2(C)[C@H]3C[C@@H](O)[C@@H]4[C@@H]([C@]5(C)CC[C@@H](C(C)(C)O)O5)CC[C@@]4(C)[C@]3(C)CC[C@H]2C1(C)C", "values": [{"measurement": "Activity", "setting": "H9c2 [1]", "value": "inactive"}, {"measurement": "viability at 2.5 µM", "setting": "H9c2 [2]", "value": 87.8, "unit": "%"}, {"measurement": "viability at 10 µM", "setting": "H9c2 [3]", "value": 97.9, "unit": "%"}, {"measurement": "Activity", "setting": "H9c2 [4]", "value": "Dose-dependent-effect; Exhibited Highest Release Efficiency Among Tested Compounds"}, {"measurement": "Activity", "setting": "Rattus norvegicus [5]", "value": "Active"}, {"measurement": "Activity", "setting": "Rattus norvegicus [6]", "value": 12.68, "unit": "%"}, {"measurement": "Activity", "setting": "Rattus norvegicus [7]", "value": 13.24, "unit": "%"}, {"measurement": "Activity", "setting": "Rattus norvegicus [8]", "value": "Dose-dependent-effect"}, {"measurement": "Activity", "setting": "H9c2 [9]", "value": 92.84, "unit": "%"}, {"measurement": "Activity", "setting": "H9c2 [10]", "value": "Active"}, {"measurement": "Activity", "setting": "H9c2 [11]", "value": "Active"}, {"measurement": "Activity", "setting": "H9c2 [12]", "value": "Active"}, {"measurement": "inhibition", "setting": "H9c2 [13]", "value": "Active"}, {"measurement": "Activity", "setting": "H9c2 [14]", "value": "Active"}, {"measurement": "Activity", "setting": "[15]", "value": 177, "unit": "%"}, {"measurement": "Activity", "setting": "[16]", "value": "Active"}]}]}
